Laboratory results taken from PubChem BioAssay (NCI).
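1) Cells in 96-well plates. 2) Compound, 48 h, 5 concentrations. 3) Linear interpolation between surrounding doses. 4) Unreached endpoint = highest concentration. GI50: concentration for 50% inhibition of growth. TGI: total growth inhibition.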

Experiments:
Assay in all cases: NCI anticancer screen, dose series, 48 h
DLD-1 colon = system: DLD-1 colon
XF 498 CNS = system: XF 498 CNS
DMS 114 small cell lung = system: DMS 114 small cell lung
M19-MEL melanoma = system: M19-MEL melanoma
RXF-631 renal = system: RXF-631 renal
SNB-78 CNS = system: SNB-78 CNS
MDA-N = system: MDA-N
MDA-MB-231 breast = system: MDA-MB-231 breast
HOP-18 NSCLC = system: HOP-18 NSCLC

| SMILES | TGI (DLD-1 colon) [µM] | TGI (XF 498 CNS) [µM] | TGI (DMS 114 small cell lung) [µM] | TGI (M19-MEL melanoma) [µM] | TGI (RXF-631 renal) [µM] | TGI (SNB-78 CNS) [µM] | TGI (MDA-N) [µM] | TGI (MDA-MB-231 breast) [µM] | GI50 (DLD-1 colon) [µM] | GI50 (XF 498 CNS) [µM] | GI50 (MDA-N) [µM] | GI50 (DMS 114 small cell lung) [µM] | GI50 (M19-MEL melanoma) [µM] | GI50 (HOP-18 NSCLC) [µM] | TGI (HOP-18 NSCLC) [µM] | GI50 (SNB-78 CNS) [µM] |
| --- | --- | --- | --- | --- | --- | --- | --- | --- | --- | --- | --- | --- | --- | --- | --- | --- |
| CC(C)(C)[C@H]1CO[C@]2(C)[C@@H]3C[C@@H]3C(=O)N12 | > 100 | > 100 | > 100 | > 100 | > 100 | > 100 |  |  |  |  |  |  |  |  |  |  |
| C[C@]12CCC(=O)C(O)=C1CC[C@@H]1[C@@H]2CC[C@]2(C)C(=O)CC[C@@H]12 | > 100 | > 100 | > 100 |  | > 100 | > 100 | > 100 | > 100 |  |  |  |  |  |  |  |  |
| c1ccc(N=C2c3ccccc3C3=NCCCN32)cc1 | > 100 | > 100 | > 100 | > 100 | > 100 | > 100 |  |  |  |  |  |  |  |  |  |  |
| CC1=Cc2cc3[n-]c(cc4nc(cc5[n-]c(cc1n2)cc5C)C(C)=C4CCC(=O)O)c(CCC(=O)O)c3C.[Pd+2] | 35.8 | 31.5 | 11.2 | 20.5 |  | 28.7 | > 100 |  | 14.5 | 14.2 | > 100 | 3.18 | 3.64 | 15.8 | 30.6 | 6.17 |
| CCOC(CN=c1nc(N(C)C)ss1)OCC | > 50.8 | 47.1 | 32.9 | 19.1 | 32.5 | 51.5 | 24.8 | 29.8 |  |  |  |  |  |  | > 100 |  |
| O=C(O)C12C3CCCC1C2CC3 (stereo not given) | > 100 | > 100 | > 100 | > 100 | > 100 | > 100 |  |  |  |  |  |  |  |  | > 100 |  |
| Nc1c(-c2nc3ccccc3[nH]2)sc(=S)n1-c1ccccc1 | > 100 |  | > 100 | > 100 | > 100 | > 100 |  |  |  |  |  |  |  |  |  |  |
| O=C(c1ccccc1)c1c(C(=O)c2ccccc2)c(-c2ccccc2)c2c(-c3ccccc3)sc(-c3ccccc3)c2c1-c1ccccc1 | > 100 | > 100 | > 100 | > 100 | > 100 | > 100 |  |  |  |  |  |  |  |  |  |  |
| CC(C(=O)Oc1ccc2ccccc2c1-c1c(O)ccc2ccccc12)c1ccccc1 (stereo not given) |  | 27.3 | 29.6 | 30.6 | 33.7 | 33.9 |  |  |  |  |  |  |  |  |  |  |
| COC(=O)c1c(CC#N)cccc1CC#N | > 100 | > 100 | > 100 | > 100 | > 100 |  |  |  |  |  |  |  |  |  |  |  |
| CC(c1cccc2ccccc12)/[N+]([O-])=C/c1ccccc1 (stereo not given) | > 100 | > 100 | > 100 |  | > 100 |  |  |  |  |  |  |  |  |  | > 100 |  |
| O=C1C(=O)N(c2ccc(Cl)c(Cl)c2)C(=O)C(=O)C1c1nc2ccccc2o1 | > 100 | > 100 |  | > 100 | > 100 | > 100 |  |  |  |  |  |  |  |  |  |  |
| CCOP(=O)(OCC)/C(C#N)=C/c1ccco1 | > 100 | > 100 | > 100 | > 100 | > 100 | > 100 |  |  |  |  |  |  |  |  | > 100 |  |
| CN(c1ccccc1)C(c1ccccc1)C(O)c1ccccc1 (stereo not given) | 47.5 |  | 47.5 | 42.4 | 43.2 | 59.6 |  |  |  |  |  |  |  |  | 33.2 |  |
| CC1(C)OCC(CO)(Nc2nc(N3CC3)nc(N3CC3)n2)CO1 | > 93 | 29.3 | 27.2 | 34.4 |  | > 100 | 27.9 |  |  |  |  |  |  |  | > 87.6 |  |
| CC1NOC(=O)C1N=Nc1ccccc1Cl (stereo not given) | > 100 | > 100 | > 100 | 60.4 | > 100 | > 100 |  |  |  |  |  |  |  |  | > 100 |  |
| CC(=O)OCC1OC(n2c(=O)n(-c3ccccc3)c(=O)c3ccccc32)C(OC(C)=O)C(OC(C)=O)C1OC(C)=O (stereo not given) | > 100 |  | > 100 | > 100 | > 100 | > 100 |  |  |  |  |  |  |  |  | > 100 |  |
| COC[n+]1cc2cc(OC)c(OC)cc2c2ccc3cc(OC)c(OC)cc3c21 | > 100 |  | > 100 | > 100 | > 100 | > 100 |  |  |  |  |  |  |  |  | > 100 |  |
| COC(=O)c1nc(NC#N)[nH]c(=O)c1C | > 100 |  | > 100 | > 100 | > 100 | > 100 |  |  |  |  |  |  |  |  | > 100 |  |
